For orientation: IC50 means the concentration that gives 50% inhibition.

Sequence of SHP2 (Q06124 whole entry): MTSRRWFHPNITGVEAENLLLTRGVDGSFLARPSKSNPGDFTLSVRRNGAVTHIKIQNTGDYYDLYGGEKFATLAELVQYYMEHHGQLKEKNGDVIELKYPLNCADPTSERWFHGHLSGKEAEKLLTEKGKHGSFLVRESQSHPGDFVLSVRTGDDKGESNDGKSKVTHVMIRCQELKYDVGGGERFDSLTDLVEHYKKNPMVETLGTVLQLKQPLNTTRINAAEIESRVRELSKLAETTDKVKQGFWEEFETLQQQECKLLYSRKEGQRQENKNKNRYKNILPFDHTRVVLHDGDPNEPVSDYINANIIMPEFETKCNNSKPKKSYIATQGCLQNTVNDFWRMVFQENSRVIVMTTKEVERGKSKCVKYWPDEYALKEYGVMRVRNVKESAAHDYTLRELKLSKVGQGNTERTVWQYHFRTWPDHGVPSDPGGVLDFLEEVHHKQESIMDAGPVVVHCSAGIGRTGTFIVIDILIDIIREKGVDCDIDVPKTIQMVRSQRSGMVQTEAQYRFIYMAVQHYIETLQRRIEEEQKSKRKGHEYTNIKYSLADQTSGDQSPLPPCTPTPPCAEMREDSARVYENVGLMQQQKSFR

The assay has as its target SHP2 (Homo sapiens (Human), UniProt Q06124). In words: SHP2 allosteric inhibition assay (DiFMUP prompt fluorescence). The note with it: 0.25 nM SHP2 activated with 0.5 μM peptide IRS1_pY1172(dPEG8)pY1222; substrate DiFMUP. It counts as biochemical.
For the molecule `Cc1nc2c(N3CCCCC3)n[nH]c2nc1N1CCC2(CC1)Oc1ccccc1[C@H]2N` [Example 162, (3R)-1′-[5-methyl-3-(piperidin-1-yl)-1H-pyrazolo[3,4-b]pyrazin-6-yl]-3H-spiro[1-benzofuran-2,4′-piperidin]-3-amine], the IC50 is > 10000 nM.

Turning to `Cc1nc2c(ccn2C2=CCOCC2)nc1N1CCC2(CC1)Cc1ccccc1[C@H]2N` [Example 193, (3S)-1′-[5-(3,6-dihydro-2H-pyran-4-yl)-3-methyl-5H-pyrrolo[2,3-b]pyrazin-2-yl]-1,3-dihydrospiro[indene-2,4′-piperidin]-3-amine], the IC50 was ≤ 50 nM.

As for `Nc1cc(Sc2cnc(N3CCC4(CC3)Cc3ccccc3[C@H]4N)cn2)c(Cl)c(Cl)n1` [Example 129, (S)-1′-(5-((6-amino-2,3-dichloropyridin-4-yl)thio)pyrazin-2-yl)-1,3-dihydrospiro[indene-2,4′-piperidin]-1-amine], the IC50 was ≤ 50 nM.

`Nc1nccc(Sc2ccc(N3CCC4(CC3)Oc3cc(F)ccc3[C@H]4N)cn2)c1Cl` [Example 224] registered an IC50 of 50 to 1000 nM.

For the molecule `N[C@@H]1c2cc(F)cc(F)c2CC12CCN(c1cnc3c(N4CCCc5ncccc54)n[nH]c3n1)CC2` [Example 109], the IC50 was ≤ 50 nM.

Take `Nc1nccc(Sc2cnc(N3CCC4(CC3)Cc3ccccc3[C@H]4N)nc2)c1Cl` [Example 93]: the IC50 was ≤ 50 nM.

In the case of `N[C@H]1c2ccccc2CC12CCN(c1cnc3c(N4CCCc5nc(-c6ccn[nH]6)ccc54)n[nH]c3n1)CC2` [Example 3], the IC50 was ≤ 50 nM.

With `Cn1ccc2c(c1=O)CCCN2c1n[nH]c2nc(N3CCC4(CC3)Oc3c(F)cccc3[C@H]4N)cnc12` [Example 55], the IC50 was ≤ 50 nM.

For `Cn1c(N2CCC3(CC2)Cc2ccccc2[C@H]3N)nc2[nH]nc(Sc3cccc(Cl)c3Cl)c2c1=O` [Example 178], the IC50 is > 10000 nM.

With `N[C@@H]1c2ccccc2CC12CCN(c1cnc3c(-c4ccncc4F)n[nH]c3n1)CC2` [Example 74], the IC50 is ≤ 50 nM.

On to `NC1c2ccccc2CC12CCN(c1nc3[nH]nc(N4CCCc5ncccc54)c3nc1CO)CC2` (stereo not drawn) [Example 99], for which the IC50 was ≤ 50 nM.

As to `N[C@@H]1c2ccccc2CC12CCN(C(=O)c1ccccc1Oc1ccccc1)CC2` [Example 292, (3S)-1′-(2-phenoxybenzoyl)-1,3-dihydrospiro[indene-2,4′-piperidin]-3-amine], the IC50 was > 10000 nM.

Turning to `N#Cc1ccc2c(c1)N([C@H]1C[C@@H](O)C1)CCN2c1n[nH]c2nc(N3CCC4(CC3)Cc3ccccc3C4N)cnc12` (stereo partly drawn) [Example 34], the IC50 is ≤ 50 nM.

Turning to `Cc1nc2c(ccn2-c2cccc3ncccc23)nc1N1CCC2(CC1)Cc1ccccc1[C@H]2N` [Example 194, (3S)-1′-[3-methyl-5-(quinolin-5-yl)-5H-pyrrolo[2,3-b]pyrazin-2-yl]-1,3-dihydrospiro[indene-2,4′-piperidin]-3-amine], the IC50 is ≤ 50 nM.

For the molecule `N[C@@H]1c2ccccc2OC12CCN(c1cnc3c(N4CCCc5ncccc54)n[nH]c3n1)CC2` [Example 119, (R)-1′-(3-(3,4-dihydro-1,5-naphthyridin-1(2H)-yl)-1H-pyrazolo[3,4-b]pyrazin-6-yl)-3H-spiro[benzofuran-2,4′-piperidin]-3-amine], the IC50 is ≤ 50 nM.

Take `N[C@@H]1c2ccccc2CC12CCN(c1cnc(Oc3ccnc(Cl)c3Cl)cn1)CC2` [Example 134, (3S)-1′-{5-[(2,3-dichloropyridin-4-yl)oxy]pyrazin-2-yl}-1,3-dihydrospiro[indene-2,4′-piperidin]-3-amine]: the IC50 is ≤ 50 nM.

Regarding `CNC(=O)c1n[nH]c2nc(N3CCC4(CC3)Cc3ccccc3[C@H]4N)c(C)nc12` [Example 125, 6-[(3S)-3-amino-1,3-dihydrospiro[indene-2,4′-piperidin]-1′-yl]-N,5-dimethyl-1H-pyrazolo[3,4-b]pyrazine-3-carboxamide], the IC50 was ≤ 50 nM.

With `N[C@@H]1c2ccccc2CC12CCN(c1cnc(SC3CCOCC3)cn1)CC2` [Example 185, (S)-1′-(5-((tetrahydro-2H-pyran-4-yl)thio)pyrazin-2-yl)-1,3-dihydrospiro[indene-2,4′-piperidin]-1-amine], the IC50 was in the range of 1000 to 10000 nM.

`Nc1nccc(Oc2cnc(N3CCC4(CC3)Oc3ccccc3[C@H]4N)cn2)c1Cl` [Example 187, (3R)-1′-{5-[(2-amino-3-chloropyridin-4-yl)oxy]pyrazin-2-yl}-3H-spiro[1-benzofuran-2,4′-piperidin]-3-amine]: the IC50 is ≤ 50 nM.

Take `CS(=O)(=O)c1cccc2c1CCCN2c1n[nH]c2nc(N3CCC4(CC3)Cc3c(F)cccc3[C@H]4N)cnc12` [Example 56]: the IC50 was ≤ 50 nM.

Take `COc1n[nH]c2nc(N3CCC4(CC3)Cc3ccccc3[C@H]4N)c(CO)nc12` [Example 158, {6-[(3S)-3-amino-1,3-dihydrospiro[indene-2,4′-piperidin]-1′-yl]-3-methoxy-1H-pyrazolo[3,4-b]pyrazin-5-yl}methanol]: the IC50 is ≤ 50 nM.

For the molecule `N[C@@H]1c2ccccc2CC12CCN(c1cnc(OCC3CC3)cn1)CC2` [Example 171, (3S)-1′-[5-(cyclopropylmethoxy)pyrazin-2-yl]-1,3-dihydrospiro[indene-2,4′-piperidin]-3-amine], the IC50 is ≤ 50 nM.

On to `N[C@@H]1c2ccccc2CC12CCN(c1cnc3c(Oc4cc[nH]c(=O)c4Cl)n[nH]c3n1)CC2` [Example 135, 4-({6-[(3S)-3-amino-1,3-dihydrospiro[indene-2,4′-piperidin]-1′-yl]-1H-pyrazolo[3,4-b]pyrazin-3-yl}oxy)-3-chloro-1,2-dihydropyridin-2-one], for which the IC50 was ≤ 50 nM.

As for `N[C@@H]1c2ccccc2CC12CCN(c1ncc(-c3ccccc3Cl)s1)CC2` [Example 145, (S)-1′-(5-(2-chlorophenyl)thiazol-2-yl)-1,3-dihydrospiro[indene-2,4′-piperidin]-1-amine], the IC50 was ≤ 50 nM.

Take `N[C@H]1c2ccccc2C[C@]12CC[C@H](c1cnc3c(N4CCCc5ncccc54)n[nH]c3n1)CC2` (single isomer, unassigned) [Example 188, (1s, 1′R, 4S)-4-(3-(3,4-dihydro-1,5-naphthyridin-1(2H)-yl)-1H-pyrazolo[3,4-b]pyrazin-6-yl)-1′,3′-dihydrospiro[cyclohexane-1,2′-inden]-1′-amine]: the IC50 is > 10000 nM.

In turn, `CCSc1cnc(N2CCC3(CC2)Cc2ccccc2[C@H]3N)cn1` [Example 170, (3S)-1′-[5-(ethylsulfanyl)pyrazin-2-yl]-1,3-dihydrospiro[indene-2,4′-piperidin]-3-amine] gave an IC50 of 50 to 1000 nM.

Take `N[C@@H]1c2cnccc2CC12CCN(c1cnc3c(N4CCCc5ncccc54)n[nH]c3n1)CC2` [Example 50]: the IC50 was ≤ 50 nM.

`Nc1nccc(-c2n[nH]c3nc(N4CCC5(CC4)Cc4ccccc4[C@H]5N)cnc23)c1F` [Example 78, (S)-1′-(3-(2-amino-3-fluoropyridin-4-yl)-1H-pyrazolo[3,4-b]pyrazin-6-yl)-1,3-dihydrospiro[indene-2,4′-piperidin]-1-amine]: the IC50 is ≤ 50 nM.

`Cc1nc(N2CCC3(CC2)Cc2ccccc2[C@H]3N)c(CO)nc1-c1cccc(Cl)c1Cl` [Example 20, (S)-(3-(1-amino-1,3-dihydrospiro[indene-2,4′-piperidin]-1′-yl)-6-(2,3-dichlorophenyl)-5-methylpyrazin-2-yl)methanol]: the IC50 is ≤ 50 nM.

As to `Nc1nccc(Sc2cnc(N3CCC4(CC3)Oc3ccccc3[C@H]4N)cn2)c1Cl` [Example 177], the IC50 was ≤ 50 nM.

Molecule `Cc1cc(-c2nccs2)cc(N2CCC3(CC2)Cc2ccccc2[C@H]3N)n1` [Example 270, (S)-1′-(6-methyl-4-(thiazol-2-yl)pyridin-2-yl)-1,3-dihydrospiro[indene-2,4′-piperidin]-1-amine] registered an IC50 of 1000 to 10000 nM.

For `N[C@H]1c2ccccc2C[C@]12CC[C@H](c1ccc(Sc3ccnc(Cl)c3Cl)nc1)CC2` [Example 280, (1s,1′R,4S)-4-(6-((2,3-dichloropyridin-4-yl)thio)pyridin-3-yl)-1′,3′-dihydrospiro[cyclohexane-1,2′-inden]-1′-amine], the IC50 is ≤ 50 nM.

In the case of `N[C@@H]1c2ccccc2CC12CCN(c1cc(OC(F)F)c3nccn3c1)CC2` [Example 202], the IC50 was ≤ 50 nM.

Consider `N[C@@H]1c2ccccc2CC12CCN(c1cnc(SCC3CCCC3)cn1)CC2` [Example 264, (S)-1′-(5-((cyclopentylmethyl)thio)pyrazin-2-yl)-1,3-dihydrospiro[indene-2,4′-piperidin]-1-amine], for which the IC50 was ≤ 50 nM.

For `Cn1c(N2CCC3(CC2)Cc2ccccc2[C@H]3N)ncc(Sc2cccc(Cl)c2Cl)c1=O` [Example 242, (S)-2-(1-amino-1,3-dihydrospiro[indene-2,4′-piperidin]-1′-yl)-5-((2,3-dichlorophenyl)thio)-3-methylpyrimidin-4(3H)-one], the IC50 was ≤ 50 nM.

As to `Nc1nccc(Sc2cnc(C34C[C@@H]5C[C@@]6(C[C@H](C3)N54)Oc3ccccc3[C@H]6N)cn2)c1Cl` (stereo partly drawn) [Example 232], the IC50 is ≤ 50 nM.

`Cc1nccc(Oc2n[nH]c3nc(N4CCC5(CC4)Cc4ccccc4[C@H]5N)cnc23)c1Cl` [Example 127] came in with an IC50 of 50 to 1000 nM.

Take `N[C@H]1c2ccccc2C[C@@]12CC=C(c1cnc3c(N4CCCc5ncccc54)n[nH]c3n1)CC2` (single isomer, unassigned) [Example 172]: the IC50 lay in the range of 1000 to 10000 nM.

With `Cc1nc2c(N3CCCc4nc(-c5cnn(C)c5)ccc43)n[nH]c2nc1N1CCC2(CC1)Cc1ccccc1[C@H]2N` [Example 149, (3S)-1′-{5-methyl-3-[6-(1-methyl-1H-pyrazol-4-yl)-1,2,3,4-tetrahydro-1,5-naphthyridin-1-yl]-1H-pyrazolo[3,4-b]pyrazin-6-yl}-1,3-dihydrospiro[indene-2,4′-piperidin]-3-amine], the IC50 is ≤ 50 nM.

As for `N[C@@H]1c2ccccc2CC12CN(c1cnc3c(N4CCCc5ncccc54)n[nH]c3n1)C2` [Example 115], the IC50 was ≤ 50 nM.

In the case of `Cn1c(N2CCC3(CC2)Cc2ccccc2[C@H]3N)ncc(SCC2CC2)c1=O` [Example 238], the half-inhibitory concentration (IC50) was ≤ 50 nM.

`Cn1cc2c(N3CCC4(CC3)Cc3ccccc3[C@H]4N)ncnc2n1` [Example 182]: the IC50 was > 10000 nM.

Source of the values: patent publication US10934302B1, “SHP2 phosphatase inhibitors and methods of use thereof” (Relay Therapeutics, Inc., priority 2018, dated 2021).
